One assay deals with SK-OV-3. Nature of the assay: Antiproliferative activity against human SKOV3 cells assessed as cell viability at 75 uM after 72 hrs relative to control. The class given is functional. The conditions noted are these: SK-OV-3, 72 h.
Assay [1] deals with MCF7. Nature of the assay: Antiproliferative activity against human MCF7 cells assessed as cell viability at 75 uM after 72 hrs relative to control. To be noted: MCF7, 72 h. The class given is functional.
The test system of another assay is HT-29. Nature of the assay: Antiproliferative activity against human HT-29 cells assessed as cell viability at 75 uM after 72 hrs relative to control. The class given is functional. To be noted: HT-29, 72 h.
Assay [2] deals with MCF7. Nature of the assay: Antiproliferative activity against human MCF7 cells after 72 hrs. The class given is functional, cell-based.
The subject of another assay is HeLa. Put plainly: Antiproliferative activity against human HeLa cells assessed as cell viability at 75 uM after 72 hrs relative to control. The class given is functional.

Inhibition and IC50 data for eight compounds are collected here from ChEMBL document CHEMBL2424626, “Synthesis and antiproliferative activities of quebecol and its analogs” (Bioorg Med Chem Lett, 2013).

For `CCOC(=O)C(c1ccccc1)C(c1ccc(O)cc1)c1ccc(O)cc1` (stereo not drawn), the inhibition at 75 µM with SK-OV-3, in the assay on MCF7 [1], in the assay on HT-29 and with HeLa was 80% throughout. The IC50 – broadly, the concentration at which inhibition is half-maximal – with MCF7 [2] (Homo sapiens, MCF7, 72 h) stood at 80.6 µM.
`CCOC(=O)C(c1ccc(OC)cc1)C(c1ccc(O)cc1)c1ccc(O)cc1` (stereo not drawn): the inhibition (commonly the share of the control response that was lost under treatment) at 75 µM with MCF7 [1] was 75%.
In the assay on MCF7 [2] (mcf7), `COc1cc(C(CO)C(c2ccc(O)c(OC)c2)c2ccc(O)c(OC)c2)ccc1O` (stereo in doubt; 9a) came in with an IC50 of 103 µM.
As to `OCC(c1ccccc1)C(c1ccc(O)cc1)c1ccc(O)cc1` (stereo not drawn), the inhibition at 75 µM with SK-OV-3, with MCF7 [1], with HT-29 and with HeLa was 80% throughout.
For `COc1cc(C(CO)C(c2ccc(O)c(OC)c2)c2ccc(O)c(OC)c2)ccc1O` (stereo in doubt), in the assay on MCF7 [2] (Homo sapiens, MCF7, 72 h), the IC50 was 104 µM.
`CCOC(=O)C(c1cccc(OC)c1)C(c1ccc(O)cc1)c1ccc(O)cc1` (stereo not drawn): the inhibition at 75 µM with SK-OV-3, in the assay on MCF7 [1], with HT-29 and with HeLa was 80% each time. In the assay on MCF7 [2] (Homo sapiens, MCF7, 72 h), this compound gave an IC50 of 85.1 µM.
Turning to `CCOC(=O)C(c1ccc(C)cc1)C(c1ccc(O)cc1)c1ccc(O)cc1` (stereo not drawn), the inhibition at 75 µM in the assay on SK-OV-3, in the assay on MCF7 [1], in the assay with HT-29 and with HeLa was 80% in each case. In the assay with MCF7 [2] (Homo sapiens, MCF7, 72 h), the IC50 was 78.7 µM.
For `CCOC(=O)C(c1ccc(O)c(OC)c1)C(c1ccc(O)cc1)c1ccc(O)cc1` (stereo not drawn), the inhibition at 75 µM with MCF7 [1] stood at 75%.
